The source of these data is PMC8286840, “Identifying SARS-CoV-2 antiviral compounds by screening for small molecule inhibitors of Nsp3 papain-like protease” (Biochemical Journal, 2021).

Counter-ions that a name gives are not always drawn. Like-named read-outs stand apart in the source and are kept apart here.

Assay [1] deals with T1, SARS-CoV-2 PLpro (nsp3 1564–1878) (Severe acute respiratory syndrome coronavirus 2, UniProt P0DTD1). Description: biochemical. Also noted: FRET-quenched peptide (Pro3) cleavage by PLpro, 10 min pre-incubation, slope over 20 min, normalised to no-compound control. The conditions noted are these: low concentration screen, read-out: % of control remaining.
Assay [2] has as its target T1, SARS-CoV-2 PLpro (nsp3 1564–1878). The assay is described as follows: biochemical. The arrangement: FRET-quenched peptide (Pro3) cleavage by PLpro, 10 min pre-incubation, slope over 20 min, normalised to no-compound control. Particulars: high concentration screen, read-out: % of control remaining.

For `O=P(O)(O)C(O)(Cc1cccnc1)P(=O)(O)O` [Risedronate sodium], the remaining activity at 1.25 µM in assay [1] (Well no.=4819) was determined as 104%. The remaining activity at 3.75 µM in assay [2] (Well no.=4819) was determined as 102%.
With `O=P(O)(O)C(O)(Cc1cccnc1)P(=O)(O)O` [Risedronic acid], the remaining activity at 1.25 µM in assay [1] (Well no.=1989) stood at 97.8%. Besides, the remaining activity at 3.75 µM in assay [2] (Well no.=1989) was found to be 96.9%.
As for `Cc1nc2n(c(=O)c1CCN1CCC(c3noc4cc(F)ccc34)CC1)CCCC2` [Risperidone], the remaining activity at 1.25 µM in assay [1] (Well no.=1306) was 103%; in assay [1] (Well no.=1606), 100%. Moreover, the remaining activity at 3.75 µM worked out at 103% in assay [2] (Well no.=1306) and 102% in assay [2] (Well no.=1606).
In the case of `Cc1nc2sccn2c(=O)c1CCN1CCC(=C(c2ccc(F)cc2)c2ccc(F)cc2)CC1` [Ritanserin], the remaining activity at 1.25 µM in assay [1] (Well no.=1352) came to 94.6%. In addition, the remaining activity at 3.75 µM in assay [2] (Well no.=1352) was 96.7%.
With `CC(C)c1nc(CN(C)C(=O)N[C@H](C(=O)N[C@@H](Cc2ccccc2)C[C@H](O)[C@H](Cc2ccccc2)NC(=O)OCc2cncs2)C(C)C)cs1` [Ritonavir], in assay [1] (Well no.=4721), the remaining activity at 1.25 µM was determined as 102%. For the same compound, in assay [2] (Well no.=4721), the remaining activity at 3.75 µM was found to be 102%.
Consider `O=C(NC[C@H]1CN(c2ccc(N3CCOCC3=O)cc2)C(=O)O1)c1ccc(Cl)s1` [Rivaroxaban], for which, in assay [1] (Well no.=8390), the remaining activity at 1.25 µM was 93.8%. In addition, in assay [2] (Well no.=8390), the remaining activity at 3.75 µM amounted to 88.4%.
Take `CCN(C)C(=O)Oc1cccc([C@H](C)N(C)C)c1` [Rivastigmine]: the remaining activity at 1.25 µM in assay [1] (Well no.=1722) is 95.2%. For the same compound, the remaining activity at 3.75 µM in assay [2] (Well no.=1722) turned out to be 96.3%.
For the compound `CN(C)CCc1c[nH]c2ccc(Cn3cncn3)cc12` [Rizatriptan (benzoate)], the remaining activity at 1.25 µM in assay [1] (Well no.=6174) was determined as 93.4%. Further, in assay [2] (Well no.=6174), the remaining activity at 3.75 µM came out at 89.9%.
For the compound `NC(=O)c1ccc(OCC(O)CN2CC=C(c3ccc(F)cc3)CC2)cc1` (centres unmarked) [Ro 8-4304], the remaining activity at 1.25 µM in assay [1] (Well no.=1160) is 98.3%. The remaining activity at 3.75 µM in assay [2] (Well no.=1160) was 99.3%.
With `Cc1ncc(CN2CC=C(c3ccccc3)CC2)c(N)n1` [Ro 10-5824 (dihydrochloride)], the remaining activity at 1.25 µM in assay [1] (Well no.=7039) worked out at 105%. For the same compound, the remaining activity at 3.75 µM in assay [2] (Well no.=7039) came to 106%.
For `NCCNC(=O)c1ccc(Cl)cc1` [Ro 16-6491 hydrochloride], the remaining activity at 1.25 µM in assay [1] (Well no.=1448) came out at 94.7%. Further, the remaining activity at 3.75 µM in assay [2] (Well no.=1448) stood at 92.5%.
Regarding `CCCCOc1cc(CC2CNC(=O)N2)ccc1OC` (centres unmarked) [Ro 20-1724], the remaining activity at 1.25 µM in assay [1] (Well no.=225) came to 102%. Also, the remaining activity at 3.75 µM in assay [2] (Well no.=225) was determined as 100%.
On to `C[C@@H](CN1CCC(Cc2ccccc2)CC1)[C@@H](O)c1ccc(O)cc1` [Ro 25-6981 hydrochloride], for which the remaining activity at 1.25 µM in assay [1] (Well no.=1350) stood at 99.4%. The remaining activity at 3.75 µM in assay [2] (Well no.=1350) amounted to 102%.
As for `Cn1cc(C2=C(c3cn(CCCSC(=N)N)c4ccccc34)C(=O)NC2=O)c2ccccc21` [Ro 31-8220 mesylate - 3-[3-[2,5-Dihydro-4-(1-methyl-1H-indol-3-yl)-2,5-dioxo-1H-pyrrol-3-yl]-1H-indol-1-yl]propyl carbamimidothioic acid ester mesylate], the remaining activity at 1.25 µM in assay [1] (Well no.=2482) worked out at 104%. For the same compound, the remaining activity at 3.75 µM in assay [2] (Well no.=2482) is 102%.
For the compound `O=C(c1cc(O)c(O)c([N+](=O)[O-])c1)c1ccccc1F` [Ro 41-0960], the remaining activity at 1.25 µM in assay [1] (Well no.=1162) turned out to be 102%. Besides, the remaining activity at 3.75 µM in assay [2] (Well no.=1162) was found to be 104%.
As to `NCCNC(=O)c1ncsc1-c1cccc(F)c1` [Ro 41-1049 hydrochloride], in assay [1] (Well no.=1496), the remaining activity at 1.25 µM came to 95.5%. Besides, the remaining activity at 3.75 µM in assay [2] (Well no.=1496) worked out at 94.1%.
With `COc1ccc(S(=O)(=O)Nc2nc(-c3cccc([N+](=O)[O-])c3)cs2)cc1OC` [Ro 61-8048], the remaining activity at 1.25 µM in assay [1] (Well no.=5865) came out at 109%. In addition, the remaining activity at 3.75 µM in assay [2] (Well no.=5865) stood at 106%.
On to `CCCCOC(=O)NC(=O)C1c2ccccc2Oc2ccccc21` [Ro 67-4853], for which the remaining activity at 1.25 µM in assay [1] (Well no.=5989) stood at 102%. Besides, the remaining activity at 3.75 µM in assay [2] (Well no.=5989) turned out to be 99.5%.
For `Cc1ccc(S(=O)(=O)N2CCC[C@H]2c2ccc(F)cc2)cc1` [Ro 67-7476], the remaining activity at 1.25 µM in assay [1] (Well no.=8053) was 99.6%. For the same compound, in assay [2] (Well no.=8053), the remaining activity at 3.75 µM turned out to be 102%.
Consider `Cn1cc(C2=C(c3cn(CCCSC(=N)N)c4ccccc34)C(=O)NC2=O)c2ccccc21` [Ro-31-8220], for which the remaining activity at 1.25 µM in assay [1] (Well no.=2633) stood at 98.6%. Besides, the remaining activity at 3.75 µM in assay [2] (Well no.=2633) was determined as 96.9%.
`O=C(CCCCCCNC(=O)c1cnc(N(c2ccccc2)c2ccccc2)nc1)NO` [Rocilinostat (ACY-1215)]: the remaining activity at 1.25 µM in assay [1] (Well no.=4786) is 101%. In assay [2] (Well no.=4786), the remaining activity at 3.75 µM is 102%.
Consider `C=CC[N+]1([C@H]2C[C@H]3[C@@H]4CC[C@H]5C[C@H](O)[C@@H](N6CCOCC6)C[C@]5(C)[C@H]4CC[C@]3(C)[C@H]2OC(C)=O)CCCC1` [Rocuronium bromide], for which the remaining activity at 1.25 µM in assay [1] (Well no.=2019) came to 103%. Also, the remaining activity at 3.75 µM in assay [2] (Well no.=2019) was 105%.
`CS(=O)(=O)c1ccc(C2=C(c3ccccc3)C(=O)OC2)cc1` [Rofecoxib]: the remaining activity at 1.25 µM in assay [1] (Well no.=1724) came out at 101%. Also, the remaining activity at 3.75 µM in assay [2] (Well no.=1724) is 100%.
For the compound `O=C(Nc1c(Cl)cncc1Cl)c1ccc(OC(F)F)c(OCC2CC2)c1` [Roflumilast], the remaining activity at 1.25 µM in assay [1] (Well no.=5877) worked out at 94.1%. For the same compound, the remaining activity at 3.75 µM in assay [2] (Well no.=5877) came out at 94.8%.
Take `C[C@@H](OC[C@@]1(c2ccccc2)CC[C@]2(CCC(=O)N2)CN1)c1cc(C(F)(F)F)cc(C(F)(F)F)c1` [Rolapitant]: the remaining activity at 1.25 µM in assay [1] (Well no.=7469) stood at 104%. Moreover, the remaining activity at 3.75 µM in assay [2] (Well no.=7469) turned out to be 96.2%.
For `COc1ccc(C2CNC(=O)C2)cc1OC1CCCC1` (centres unmarked) [Rolipram], the remaining activity at 1.25 µM stood at 102% in assay [1] (Well no.=1302) and 101% in assay [1] (Well no.=2152). The figures for the remaining activity at 3.75 µM in assay [2] (Well no.=1302) and in assay [2] (Well no.=2152) were 103% and 102%, respectively.
In the case of `Cn1c([N+](=O)[O-])cnc1COC(N)=O` [Ronidazole], in assay [1] (Well no.=4700), the remaining activity at 1.25 µM was determined as 99.8%. Further, the remaining activity at 3.75 µM in assay [2] (Well no.=4700) was found to be 96.7%.
As for `CCCN(CCC)CCc1cccc2c1CC(=O)N2` [Ropinirole (hydrochloride)], the remaining activity at 1.25 µM in assay [1] (Well no.=8205) is 99.3%. Further, the remaining activity at 3.75 µM in assay [2] (Well no.=8205) was 90.6%.
`CCCN(CCC)CCc1cccc2c1CC(=O)N2` [Ropinirole hydrochloride]: the remaining activity at 1.25 µM in assay [1] (Well no.=1444) was found to be 93.6%. In assay [2] (Well no.=1444), the remaining activity at 3.75 µM stood at 97.7%.
In the case of `CCCN1CCCC[C@H]1C(=O)Nc1c(C)cccc1C` [Ropivacaine HCl], in assay [1] (Well no.=4698), the remaining activity at 1.25 µM came to 99%. Moreover, in assay [2] (Well no.=4698), the remaining activity at 3.75 µM came to 96.6%.
`CCCN1CCCC[C@H]1C(=O)Nc1c(C)cccc1C` [Ropivacaine hydrochloride]: in assay [1] (Well no.=5891), the remaining activity at 1.25 µM is 98.9%. In addition, in assay [2] (Well no.=5891), the remaining activity at 3.75 µM turned out to be 97.5%.
Consider `CN(C(=O)c1c(O)c2ccccc2n(C)c1=O)c1ccccc1` [Roquinimex], for which the remaining activity at 1.25 µM in assay [1] (Well no.=6160) was found to be 103%. In addition, the remaining activity at 3.75 µM in assay [2] (Well no.=6160) turned out to be 96.9%.
